Results from patent US20260315434A1, “USE OF GUAIACOL SESQUITERPENE LACTONE DERIVATIVES” (NANJING UNIVERSITY OF CHINESE MEDICINE, priority 2023, published 2026).

Legend:
T cells / MDSCs = assay: Promotion of T cell proliferation in a co-culture model of MDSCs and T cells; type: cell-based, mouse; settings: Mus musculus, T-cell, 12 h, read-out: T-cell proliferation rate (%)
Procedure, shortened: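 Bone-marrow MDSCs, after compound treatment, were co-cultured 48 h at 1:1 with CFDA-SE-labelled (10 μM solution), activated splenic T cells. Proliferation of CD3+ T cells was read by flow cytometry.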

4T1 cells = assay: Antitumor effect in 4T1 mouse mammary carcinoma xenograft model; type: in vivo, BALB/c mice
Protocol: 4T1 cells were cultured and expanded in vitro. […] A 100 μL aliquot of this suspension was injected subcutaneously into the left forelimb axilla of female BALB/c mice. […] Daily oral administration was performed for 3 weeks. During the treatment period, mouse body weight and tumor diameter were measured daily. At the end of the experiment, mice were euthanized by cervical dislocation, and tumors were removed for weighing. Tumor volume (TV) was calculated using the formula: TV=½×a×b^2, where a represents the longest diameter of the tumor and b represents the shortest diameter.

[1] = tested on: inflammatory cytokines (TNF, IL-6, IL-1) in renal tissue; assay: Folic acid-induced acute kidney injury, renal inflammatory factor mRNA; type: in vivo, C57BL/6 mice; settings: folic acid acute model, 1 mg/kg oral; 1 mg/kg
Protocol: (§1) Except for the normal group, all other mice were administered folic acid (250 mg/kg) dissolved in 0.9% NaHCO3 solution via intraperitoneal injection to establish an acute kidney injury model.
(§2) The blood was allowed to stand at room temperature for 2 hours, then centrifuged at 3000 rpm for 20 minutes. Serum was aspirated, aliquoted, and stored at −70° C. for future use. Following blood collection, euthanize mice by cervical dislocation. Perform laparotomy to remove kidneys, dissect out perirenal fat and capsules. […] Paraffin-embedded specimens undergo HE staining; remaining tissue is stored at −70° C. for future use.

[2] = tested on: fibrosis-related factors (α-Sma, Col1a1, Tgfb1) in kidney tissue; assay: Folic acid-induced kidney injury, renal fibrosis-related factor mRNA; type: in vivo, C57BL/6 mice; settings: folic acid model, 1 mg/kg oral; 1 mg/kg
Protocol: as §1, §2

[3] = tested on: fibrosis-related factors (α-Sma, Col1a1, Tgfb1) in kidney tissue; assay: UUO chronic kidney injury, renal fibrosis-related factor mRNA; type: in vivo, C57BL/6 mice; parameters: unit not given here; settings: UUO chronic model, 1 mg/kg oral; 1 mg/kg
Description: Chronic Kidney Injury: Mice were randomly divided into five groups. […] Except for the sham-operated mice in the normal group (where only the left ureter was exposed without further manipulation), all other mice underwent unilateral ureteral ligation to establish a chronic kidney injury model as follows: The abdominal skin was disinfected with iodine solution followed by alcohol. An incision was made, and the abdominal layers were dissected sequentially. The left ureter was fully exposed and dissected. A double ligation was performed at the bladder-proximal end of the left ureter using absorbable suture material, followed by closure.
as §2

[4] = Conversion (release) of prodrug salts to parent compound in HEPES buffer pH 7.4; type: in vitro ADME; settings: HEPES pH 7.4, 37 °C
Procedure, shortened: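 Salt dissolved in water, mixed 1:1 with HEPES solution pH 7.4 (NaCl, KCl, Na2HPO4, glucose) and held at 37° C. At 1, 2, 4, 8 and 12 h, samples were methanol-quenched, centrifuged and analysed by reversed-phase HPLC at 210 nm, with peak areas recorded for conversion to parent compound.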

[5] = Conversion (release) of prodrug salts to parent compound in mouse plasma; type: in vitro ADME; settings: 37 °C
Procedure, shortened: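 Salts (0.6 mg in 250 μL water) were mixed 1:1 with heparinized mouse plasma or HEPES pH 7.4 and incubated at 37 °C. Samples were methanol-quenched and taken at 1–12 h. Parent compound was quantified by C18 HPLC-UV at 210 nm using peak areas.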

[6] = tested on: renal injury markers (Ngal, Havcr1) in kidney tissue; assay: Folic acid-induced acute kidney injury, renal injury marker mRNA; type: in vivo, C57BL/6 mice; parameters: scale not given here; settings: folic acid acute model, 1 mg/kg oral; 1 mg/kg
Protocol: as §1, §2

[7] = 40 μmol/kg/day, oral, 3 weeks, 4T1

Structure (SMILES): C=C1C(=O)O[C@@H]2[C@H]3C(C)=CC[C@@]34O[C@@]4(C)CC[C@@H]12 [Arg, Arglabin, reference compound]
- activation at 1 µM (T cells / MDSCs): > 40%
- antitumor effect, 4T1 (4T1 cells; mouse, in vivo, po): no significant antitumor effects

Structure (SMILES): CN(C)C[C@@H]1C(=O)O[C@H]2[C@H]1CC[C@@]1(C)C[C@]13CC[C@@](C)(O)[C@H]23 [Compound 20]
- Tumor inhibition rate (%) (4T1 cells; [7]): −15.24%
- Tumor weight (4T1 cells; [7]): 2.09 ± 0.60 g
- antitumor effect, 4T1 (4T1 cells; oral, 3 weeks, result in words): no significant antitumor effects
- Il1 mRNA expression, kidney [1]: 1.06 ± 0.33
- Il6 mRNA expression, kidney [1]: 1.55 ± 0.28
- Tnf mRNA expression, kidney [1]: 2.31 ± 0.72
- Col1a1 mRNA expression, kidney [2]: 1.18 ± 0.15
- Tgfb1 mRNA expression, kidney [2]: 0.98 ± 0.27
- α-Sma mRNA expression, kidney [2]: 1.11 ± 0.17
- Col1a1 mRNA expression, kidney [3]: 7.30 ± 0.90
- Tgfb1 mRNA expression, kidney [3]: 1.44 ± 0.21
- α-Sma mRNA expression, kidney [3]: 1.26 ± 0.18
- Release rate (conversion to Compound 1) ([4]; 1 h, 60 min): 6.2%
- Release rate (conversion to Compound 1) ([4]; 2 h, 120 min): 13.8%
- Release rate (conversion to Compound 1) ([4]; 4 h, 240 min): 21.7%
- Release rate (conversion to Compound 1) ([4]; 8 h, 480 min): 44.3%
- Release rate (conversion to Compound 1) ([4]; 12 h, 720 min): 59.1%
- Release rate (conversion to Compound 1) ([5]; 1 h, 60 min): 7.3%
- Release rate (conversion to Compound 1) ([5]; 2 h, 120 min): 12.9%
- Release rate (conversion to Compound 1) ([5]; 4 h, 240 min): 28.6%
- Release rate (conversion to Compound 1) ([5]; 8 h, 480 min): 46.8%
- Release rate (conversion to Compound 1) ([5]; 12 h, 720 min): 62.9%
- Havcr1 mRNA expression, kidney [6]: 62.86 ± 12.20
- Ngal mRNA expression, kidney [6]: 13.05 ± 1.82
